Measured values reported in US20240336566A1, “CRYSTALLINE FORMS OF A COMPOUND FOR THE TARGETED DEGRADATION OF THE ANDROGEN RECEPTOR” (Arvinas Operations, Inc., priority 2023, published 2024).
Entries after “also recorded” stand apart in the source; their conditions may differ.

Assay: Dynamic vapour sorption (DVS) with XRPD of retained solid
Type: physicochemical
Protocol: 10-20 mg of sample was placed into a mesh vapour sorption balance pan and loaded into a DVS-1 dynamic vapour sorption balance by Surface Measurement Systems. The sample was subjected to a ramping profile from 40-90% relative humidity (RH) at 10% increments, maintaining the sample at each step until a stable weight had been achieved (dm/dt 0.004%, minimum step length 30 minutes, maximum step length 500 minutes) at 25° C. After completion of the sorption cycle, the sample was dried using the same procedure to 0% RH and then a second sorption cycle back to 40% RH. Two cycles were performed. The weight change during the sorption/desorption cycles were plotted, allowing for the hygroscopic nature of the sample to be determined. XRPD analysis was then carried out on any solid retained.

hygroscopic nature (DVS) (25° C.): hygroscopic
average mass uptake of water (DVS) (at 90% RH, 25° C.): 4.08 wt. %
mass uptake of water (DVS), equivalents (at 90% RH, 25° C.): 1.91 eq.
SMILES: COc1cc(O[C@H]2C(C)(C)[C@H](NC(=O)c3ccc(N4CCC(CN5CCN(c6ccc(C(=O)N[C@H]7CCC(=O)NC7=O)c(F)c6)CC5)CC4)cc3)C2(C)C)ccc1C#N [Compound A, 4-(4-((1-(4-(((1R,3R)-3-(4-cyano-3-methoxyphenoxy)-2,2,4,4-tetramethylcyclobutyl)carbamoyl)phenyl)piperidin-4-yl)methyl)piperazin-1-yl)-N—((S)-2,6-dioxopiperidin-3-yl)-2-fluorobenzamide]
form by XRPD post DVS: Crystallization was not observed; also recorded: remained amorphous by XRPD
